According to patent US20230050653A1, “ROCK INHIBITOR AND PREPARATION METHOD THEREFOR AND USE THEREOF” (WUHAN LL SCIENCE AND TECHNOLOGY DEVELOPMENT CO., LTD., priority 2019, published 2023):

Assays:
ROCK1 kinase = target: T1, ROCK1 kinase (Homo sapiens, UniProt Q13464); assay: In vitro evaluation of ROCK1 kinase selectivity (HTRF KinEASE-STK time-resolved fluorometric assay); format: biochemical
T1 construct: purchased Invitrogen
How it was run: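 Recombinant ROCK1 (0.4 ng/μL final) preincubated with compound (1% DMSO) for 0.5 h at room temperature in buffer with 5 mM MgCl2 and 1 mM DTT. Reaction started with ATP and biotinylated STK-substrate 2 (3.53 μM and 1 μM final), run 2 h at room temperature. HTRF detection with STK antibody-Cryptate/streptavidin-XL665 after about 1 h.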

ROCK2 kinase = target: T2, ROCK2 kinase (Homo sapiens, UniProt O75116); assay: In vitro evaluation of ROCK2 kinase activity (HTRF KinEASE-STK time-resolved fluorometric assay); format: biochemical
T2 construct: purchased Invitrogen PV3759
How it was run: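 ROCK2 (0.4 ng/μL final) was preincubated with compound (1% DMSO) for 0.5 h at room temperature in kinase buffer with 5 mM MgCl2, 1 mM DTT. Reaction with ATP 6.739 μM and STK-substrate 2-biotin 1 μM ran 2 h at room temperature; HTRF read-out after ~1 h detection.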

[1] = In vivo pharmacokinetic study in mice; conditions: mouse, plasma
Description: In Vivo Pharmacokinetic Study of Compounds Disclosed Herein in Mice SPF-grade mice (SPF (Beijing) Biotechnology Co., Ltd.) were fasted overnight (without water deprivation) after adaptive feeding, and then received the compound of the present disclosure by intragastrical administration and bolus injection at tail vein. After administration, plasma of mice was collected at specific time points, and the concentration of the compound in the plasma was detected by LC-MS/MS (AB SCIEX Qtrap4500). The PK parameters of the compounds were statistically analyzed and calculated (WinNonlin V5.2, Pharsight) to show the pharmacokinetic properties of the compounds in mice.

[2] = In vitro cytotoxicity assay in HepG2 cells, CCK-8 method; conditions: human
Description: In vitro cytotoxicity assay for the compounds disclosed herein was performed in HepG2 cells using the CCK-8 method. HepG2 cells (Beina Bio) in the logarithmic growth phase were collected, the concentration of cell suspension was adjusted, and then the cells were plated on a 96-well cell culture plate at 50,000 cells/well. The cells were then incubated overnight in a cell incubator (5%, 37° C.), and after 80-90% cell confluence was achieved, test compound at each concentration gradient or vehicle (DMSO) was added after medium change. The resulting mixture was incubated in the cell incubator (5%, 37° C.) for 48 h. After the treatment, the medium in the plate was discarded. The plate was washed twice with PBS, added with CCK-8 working solution (Beyotime) at 100 μL per well, and then incubated at 37° C. for 1.5 h in the dark. Absorbance at OD450 nm was measured for each well on a microplate reader, and CC50 value of each compound was analyzed and calculated.

T2 sequence (O75116 whole entry): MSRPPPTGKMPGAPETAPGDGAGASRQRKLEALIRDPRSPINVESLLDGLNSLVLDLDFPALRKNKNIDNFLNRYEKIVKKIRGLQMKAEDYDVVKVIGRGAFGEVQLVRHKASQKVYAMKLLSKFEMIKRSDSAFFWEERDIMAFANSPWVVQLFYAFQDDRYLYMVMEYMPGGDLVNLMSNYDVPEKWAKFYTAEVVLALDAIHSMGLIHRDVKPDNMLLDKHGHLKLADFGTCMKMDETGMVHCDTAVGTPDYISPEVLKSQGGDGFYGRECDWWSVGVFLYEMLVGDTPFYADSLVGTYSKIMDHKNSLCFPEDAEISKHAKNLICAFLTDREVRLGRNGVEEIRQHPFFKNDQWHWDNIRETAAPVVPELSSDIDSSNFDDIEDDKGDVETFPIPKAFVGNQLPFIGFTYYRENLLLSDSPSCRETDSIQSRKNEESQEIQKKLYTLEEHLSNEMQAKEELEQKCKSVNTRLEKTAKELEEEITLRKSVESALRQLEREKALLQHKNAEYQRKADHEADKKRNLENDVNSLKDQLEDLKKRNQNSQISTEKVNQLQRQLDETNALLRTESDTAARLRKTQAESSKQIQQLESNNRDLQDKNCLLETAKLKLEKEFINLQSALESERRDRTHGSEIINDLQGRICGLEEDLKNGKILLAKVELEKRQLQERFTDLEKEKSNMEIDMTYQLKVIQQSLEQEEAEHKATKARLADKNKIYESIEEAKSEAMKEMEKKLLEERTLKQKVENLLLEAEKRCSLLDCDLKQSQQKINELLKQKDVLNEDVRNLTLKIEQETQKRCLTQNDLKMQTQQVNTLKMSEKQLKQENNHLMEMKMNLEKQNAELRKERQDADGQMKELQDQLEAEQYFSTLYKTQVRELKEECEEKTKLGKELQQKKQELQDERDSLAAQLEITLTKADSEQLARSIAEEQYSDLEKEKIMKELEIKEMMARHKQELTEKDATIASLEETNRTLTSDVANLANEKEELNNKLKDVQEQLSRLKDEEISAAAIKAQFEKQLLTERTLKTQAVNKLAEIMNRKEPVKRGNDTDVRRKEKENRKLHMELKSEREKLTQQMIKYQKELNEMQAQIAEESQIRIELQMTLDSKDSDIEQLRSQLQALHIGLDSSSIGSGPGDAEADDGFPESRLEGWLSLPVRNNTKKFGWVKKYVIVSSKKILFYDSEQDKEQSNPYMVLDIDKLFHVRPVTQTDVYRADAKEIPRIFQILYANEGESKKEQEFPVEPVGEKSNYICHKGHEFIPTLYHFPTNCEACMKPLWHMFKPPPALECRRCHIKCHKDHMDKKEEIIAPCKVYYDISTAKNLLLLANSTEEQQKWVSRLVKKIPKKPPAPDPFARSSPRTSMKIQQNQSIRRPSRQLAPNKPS
T1 sequence (Q13464 whole entry): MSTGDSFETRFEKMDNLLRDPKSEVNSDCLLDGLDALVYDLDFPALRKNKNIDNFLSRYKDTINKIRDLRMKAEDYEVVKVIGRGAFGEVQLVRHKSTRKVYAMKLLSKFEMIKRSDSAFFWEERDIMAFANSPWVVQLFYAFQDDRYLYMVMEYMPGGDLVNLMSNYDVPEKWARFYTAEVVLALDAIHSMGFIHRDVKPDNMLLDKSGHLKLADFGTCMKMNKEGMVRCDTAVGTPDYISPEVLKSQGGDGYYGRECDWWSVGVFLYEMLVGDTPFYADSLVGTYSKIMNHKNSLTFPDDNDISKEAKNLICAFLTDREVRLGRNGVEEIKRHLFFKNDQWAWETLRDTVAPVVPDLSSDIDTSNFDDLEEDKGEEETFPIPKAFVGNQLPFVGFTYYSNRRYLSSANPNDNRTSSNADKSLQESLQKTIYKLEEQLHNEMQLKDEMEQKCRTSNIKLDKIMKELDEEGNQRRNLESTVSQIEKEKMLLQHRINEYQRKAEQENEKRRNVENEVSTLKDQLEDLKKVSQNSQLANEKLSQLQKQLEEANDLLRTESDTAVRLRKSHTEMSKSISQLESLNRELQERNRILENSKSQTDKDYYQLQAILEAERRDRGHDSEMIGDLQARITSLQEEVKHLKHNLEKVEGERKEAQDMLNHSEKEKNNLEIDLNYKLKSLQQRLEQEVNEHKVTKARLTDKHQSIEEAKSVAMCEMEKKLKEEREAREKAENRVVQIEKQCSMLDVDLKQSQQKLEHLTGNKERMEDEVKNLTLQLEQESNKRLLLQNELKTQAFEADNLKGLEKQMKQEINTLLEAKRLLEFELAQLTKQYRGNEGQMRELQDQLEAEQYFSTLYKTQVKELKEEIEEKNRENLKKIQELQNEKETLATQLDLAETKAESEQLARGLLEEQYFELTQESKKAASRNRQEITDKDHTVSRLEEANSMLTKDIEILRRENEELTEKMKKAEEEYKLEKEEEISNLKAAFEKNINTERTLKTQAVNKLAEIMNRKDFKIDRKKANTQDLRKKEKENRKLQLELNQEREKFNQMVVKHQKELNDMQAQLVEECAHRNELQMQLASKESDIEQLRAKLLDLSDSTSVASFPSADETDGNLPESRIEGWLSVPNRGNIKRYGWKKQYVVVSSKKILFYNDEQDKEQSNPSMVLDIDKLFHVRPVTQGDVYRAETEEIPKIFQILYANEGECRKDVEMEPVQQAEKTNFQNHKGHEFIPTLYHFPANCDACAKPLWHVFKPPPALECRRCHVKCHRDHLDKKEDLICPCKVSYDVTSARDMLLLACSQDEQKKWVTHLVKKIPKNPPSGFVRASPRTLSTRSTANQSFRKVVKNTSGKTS

Row | Compound | IC50 (ROCK1 kinase) [nM] | IC50 (ROCK2 kinase) [nM] | bioavailability ([1]; 3 mg/kg Po vs Iv) [%] | AUC(0-t) ([1]; Iv, 3 mg/kg) [ng·h/mL] | Cmax ([1]; Iv, 3 mg/kg) [ng/mL] | AUC(0-t) ([1]; Po, 3 mg/kg) [ng·h/mL] | Cmax ([1]; Po, 3 mg/kg) [ng/mL] | CC50 at 48 h [2] [nM] | bioavailability ([1]; 1 mg/kg Po vs Iv) [%] | AUC(0-t) ([1]; Iv, 1 mg/kg) [ng·h/mL] | Cmax ([1]; Iv, 1 mg/kg) [ng/mL] | AUC(0-t) ([1]; Po, 1 mg/kg) [ng·h/mL] | Cmax ([1]; Po, 1 mg/kg) [ng/mL] | CC50 (HepG2 cells) [nM]
1 | COc1cc(F)cc(CNC(=O)N2CCc3cc(-c4cn[nH]c4)ccc32)c1 [Compound T202, N-(3-fluoro-5-methoxybenzyl)-5-(1H-pyrazol-4-yl)indoline-1-carboxamide] | ≤ 50 | ≤ 50 | 90.3 | 1740 | 2340 | 1570 | 807 | > 50000 |  |  |  |  |  | 
2 | COc1cccc(CNC(=O)N2CCc3cc(-c4c[nH]nc4N)c(F)cc32)c1 [Compound T345, 5-(3-amino-1H-pyrazol-4-yl)-6-fluoro-N-(3-methoxybenzyl)indoline-1-carboxamide] | 50 to 500 | ≤ 50 |  |  |  |  |  | 40800 | 49.1 | 1260 | 977 | 618 | 322 | 
3 | COc1cccc(CNC(=O)N2CCc3cc(-c4c[nH]nc4F)c(F)cc32)c1 [Compound T357, 6-fluoro-5-(3-fluoro-1H-pyrazol-4-yl)-N-(3-methoxybenzyl)indoline-1-carboxamide] | ≤ 50 | ≤ 50 |  |  |  |  |  | 96000 | 71.1 | 1090 | 811 | 775 | 352 | 
4 | COc1cc(F)cc(C(=O)NC(=O)c2cn(C)c3cc(-c4cn[nH]c4)ccc23)c1 [Compound T203, 1-methyl-6-(1H-pyrazol-4-yl)-1H-indole-3-carboxylic acid-3-fluoro-5-methoxy-benzoylamide] |  |  |  |  |  |  |  |  |  |  |  |  |  | > 50000
5 | COc1cccc(CNC(=O)c2ncn3cc(-c4cn[nH]c4F)ccc23)c1 [Compound T391, 6-(5-fluoro-1H-pyrazol-4-yl)-N-(3-methoxybenzyl)imidazo (1,5-a)pyridine-1-carboxamide] | ≤ 50 | ≤ 50 |  |  |  |  |  | > 100000 |  |  |  |  |  | 
6 | O=C(NCc1cc(F)cc(F)c1)N1CCc2cc(-c3cn[nH]c3F)c(F)cc21 [Compound T387, N-(3,5-difluorobenzyl)-6-fluoro-5-(5-fluoro-1H-pyrazol-4-yl)indoline-1-carboxamide] | ≤ 50 | ≤ 50 |  |  |  |  |  | > 100000 | 82.8 | 753 | 492 | 623 | 188 | 
7 | COc1cc(F)cc(CNC(=O)N2CCCc3cc(-c4cn[nH]c4)ccc32)c1 [Compound T204, N-(3-fluoro-5-methoxybenzyl)-6-(1H-pyrazol-4-yl)-3,4-dihydroquinoline-1(2H)-carboxamide] | 50 to 500 | ≤ 50 |  |  |  |  |  | > 50000 |  |  |  |  |  | 
